This is an account of results in PubChem BioAssay (NCI).

Test systems include HOP-92 NSCLC; HCT-116 colon; NCI/ADR-RES ovarian; LOX IMVI melanoma; SF-268 CNS; CCRF-CEM leukemia; U251 CNS; HS 578T breast; UO-31 renal; SF-539 CNS.
What all share (test): DTP human tumour cell line panel, 48 h

Several values for one entry are separate records, joined by “and”; a condition that tells them apart may be missing. Equal values may be shown once.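 Compound exposure: 48 hours, 5 concentrations, 96-well plates. Here, GI50 denotes the concentration required for 50% inhibition of growth. The concentration for full growth arrest is given as TGI.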

In general, GI50 refers to the concentration that inhibits growth by half. One may read the TGI as the concentration at which net growth stops. In the case of `CN1CCN(Cc2ccc(NC(=O)c3cncc(C#Cc4c(N)ncc5ccccc45)c3)cc2C(F)(F)F)CC1`, the 50% growth inhibitory concentration (GI50) in the assay on HOP-92 NSCLC is 0.158 µM; in the assay on HCT-116 colon, 0.257 µM; with NCI/ADR-RES ovarian, 0.945 µM; with LOX IMVI melanoma, 0.348 µM; in the assay on SF-268 CNS, 0.723 µM; in the assay with CCRF-CEM leukemia, 0.14 µM. The GI50 with U251 CNS was 0.686 µM; with HS 578T breast, 0.64 µM; with UO-31 renal, 0.541 µM; in the assay with SF-539 CNS, 0.532 µM. The TGI in the assay on HOP-92 NSCLC was determined as 0.836 µM; in the assay on HCT-116 colon, 0.892 µM; in the assay on NCI/ADR-RES ovarian, 2.21 µM; in the assay with LOX IMVI melanoma it was 0.979 µM; with SF-268 CNS it was 1.56 µM; with CCRF-CEM leukemia it was 1.47 µM. In addition, the TGI was 1.41 µM in the assay with U251 CNS, 1.86 µM with HS 578T breast, 1.16 µM with UO-31 renal and 1.13 µM in the assay with SF-539 CNS.

On to `COc1cc2c3c(c4cc(OC)c(OC)cc4c2cc1OC)CN1CCC[C@H]1C3`, for which the GI50 with HOP-92 NSCLC was 0.0366 µM and < 0.0105 µM; with NCI/ADR-RES ovarian, 0.111 µM and 0.0379 µM; in the assay with SF-268 CNS, 0.0142 µM; in the assay on CCRF-CEM leukemia, 0.0524 µM and < 0.0104 µM; in the assay on U251 CNS, 0.0221 µM and < 0.01 µM; in the assay on SF-539 CNS, 0.0564 µM and 0.0157 µM. Moreover, the concentration for total growth inhibition (TGI) is 1.34 µM and 0.695 µM in the assay on HOP-92 NSCLC; 1.75 µM and 1.04 µM with HCT-116 colon; 0.245 µM and 1.46 µM in the assay with LOX IMVI melanoma; 0.977 µM and 4.84 µM in the assay on CCRF-CEM leukemia; 0.331 µM in the assay with U251 CNS; more than 29.2 µM with HS 578T breast. Further, the TGI in the assay on UO-31 renal was 1.66 µM and 1 µM; in the assay with SF-539 CNS, 2.94 µM and 1.12 µM.

Regarding `Cc1cnc(C(=O)Nc2nc3ccc(S(=O)(=O)Nc4ccc(C(C)(C)C)cc4)cc3[nH]2)cn1`, the GI50 with HOP-92 NSCLC was 0.553 µM; in the assay on HCT-116 colon, 0.498 µM; in the assay on NCI/ADR-RES ovarian, 0.37 µM; in the assay on LOX IMVI melanoma, 0.79 µM; with SF-268 CNS, 0.759 µM; in the assay on CCRF-CEM leukemia it was 0.415 µM. The GI50 in the assay on U251 CNS is 0.648 µM; in the assay with HS 578T breast, 0.422 µM; with UO-31 renal, 0.583 µM; with SF-539 CNS, 0.333 µM. Also, the TGI with HOP-92 NSCLC came out at 7.24 µM; in the assay on HCT-116 colon it was 6.22 µM; in the assay with NCI/ADR-RES ovarian, 3.57 µM; in the assay on LOX IMVI melanoma it was 13.1 µM; with SF-268 CNS, 13.6 µM; in the assay on CCRF-CEM leukemia, 14.5 µM. In addition, the TGI in the assay on U251 CNS was 9.99 µM; in the assay with HS 578T breast it was 10.6 µM; in the assay on UO-31 renal, 19.4 µM; in the assay on SF-539 CNS, 1.87 µM.

Consider `CSc1ccc(-c2cn3ccsc3n2)cc1`, for which the GI50 with HOP-92 NSCLC is 6.81 µM; in the assay on HCT-116 colon, 3.6 µM; with NCI/ADR-RES ovarian it was 26.4 µM; with LOX IMVI melanoma, 8.6 µM; with SF-268 CNS it was 7.54 µM; in the assay on CCRF-CEM leukemia it was 3.97 µM. For the same compound, the GI50 in the assay on U251 CNS is 7.65 µM; with HS 578T breast it was 9.5 µM; in the assay on UO-31 renal, 7.95 µM; in the assay with SF-539 CNS, 16.9 µM. The TGI is more than 78.9 µM in the assay with HOP-92 NSCLC; more than 100 µM in the assay with HCT-116 colon; more than 100 µM with NCI/ADR-RES ovarian; more than 100 µM in the assay on LOX IMVI melanoma; more than 100 µM with SF-268 CNS; more than 47.1 µM with CCRF-CEM leukemia. Moreover, the total growth inhibition concentration (TGI) with U251 CNS is more than 100 µM; in the assay on HS 578T breast, more than 65.7 µM; in the assay on UO-31 renal, more than 100 µM; with SF-539 CNS, more than 75.3 µM.

As for `COc1cc(C(=O)/C=C/c2c[nH]c3ccccc23)cc(OC)c1OC`, the GI50 in the assay with HOP-92 NSCLC is 0.0269 µM; in the assay with HCT-116 colon, less than 0.0175 µM; in the assay with NCI/ADR-RES ovarian it was less than 0.0144 µM; in the assay with LOX IMVI melanoma, 0.0508 µM; in the assay on SF-268 CNS it was 0.0735 µM; in the assay with CCRF-CEM leukemia it was 0.0254 µM. Moreover, the GI50 is less than 0.0195 µM with U251 CNS, 0.0208 µM with HS 578T breast, 0.0396 µM in the assay with UO-31 renal and 0.0184 µM in the assay with SF-539 CNS. For the same compound, the TGI with HOP-92 NSCLC stood at 6.46 µM; in the assay with HCT-116 colon, 16.9 µM; in the assay with NCI/ADR-RES ovarian, 33.6 µM; in the assay on LOX IMVI melanoma, 16.1 µM; with SF-268 CNS, 26.3 µM; with CCRF-CEM leukemia, 14 µM. Besides, the TGI is 16.1 µM with U251 CNS, 30.4 µM with HS 578T breast, 11.4 µM in the assay on UO-31 renal and 0.0965 µM with SF-539 CNS.

For the compound `CNC(=O)c1sc(-n2cnc3cc(OC)c(OC)cc32)cc1OCc1ccccc1C(F)(F)F`, the GI50 in the assay on HOP-92 NSCLC is 2.2 µM; in the assay on HCT-116 colon, more than 25 µM; with NCI/ADR-RES ovarian, 14.9 µM; with LOX IMVI melanoma, more than 25 µM; with SF-268 CNS, more than 25 µM; with CCRF-CEM leukemia, more than 25 µM. Moreover, the GI50 was more than 25 µM with U251 CNS, more than 25 µM in the assay with HS 578T breast, 12 µM in the assay on UO-31 renal and more than 25 µM in the assay with SF-539 CNS. The TGI in the assay with HOP-92 NSCLC, with HCT-116 colon, in the assay with NCI/ADR-RES ovarian, with LOX IMVI melanoma, with SF-268 CNS and in the assay on CCRF-CEM leukemia was more than 25 µM each time. Further, the TGI with U251 CNS, in the assay on HS 578T breast, with UO-31 renal and with SF-539 CNS was more than 25 µM throughout.

Turning to `COC(=O)c1sc(-n2cnc3cc(OC)c(OC)cc32)cc1OCc1ccccc1C(F)(F)F`, the GI50 was 4.31 µM with HOP-92 NSCLC; more than 21.8 µM with HCT-116 colon; more than 25 µM in the assay on NCI/ADR-RES ovarian; more than 25 µM in the assay with LOX IMVI melanoma; 17.1 µM in the assay with SF-268 CNS; more than 25 µM in the assay on CCRF-CEM leukemia. Further, the GI50 is 10.8 µM in the assay on U251 CNS, 6.2 µM in the assay on HS 578T breast, more than 25 µM in the assay on UO-31 renal and more than 25 µM with SF-539 CNS. Also, the TGI with HOP-92 NSCLC was 18.1 µM; in the assay with HCT-116 colon it was more than 25 µM; in the assay with NCI/ADR-RES ovarian, more than 25 µM; in the assay on LOX IMVI melanoma it was more than 25 µM; in the assay on SF-268 CNS, more than 25 µM; in the assay with CCRF-CEM leukemia it was more than 25 µM. The total growth inhibition concentration (TGI) in the assay on U251 CNS, in the assay on HS 578T breast, with UO-31 renal and in the assay with SF-539 CNS was more than 25 µM each time.

`CCOC(=O)Nc1cc2c(c(N)n1)N=C(c1ccc(Cl)cc1Cl)CN2`: the total growth inhibition concentration (TGI) in the assay on HOP-92 NSCLC was 44.7 µM; with HCT-116 colon, 12.7 µM; with NCI/ADR-RES ovarian, 18.9 µM; with LOX IMVI melanoma, 44.8 µM; with SF-268 CNS, 25.5 µM; in the assay on CCRF-CEM leukemia, more than 100 µM. The TGI in the assay on U251 CNS came out at 18 µM; in the assay on HS 578T breast, 1.41 µM; in the assay with UO-31 renal, 22.7 µM; in the assay with SF-539 CNS it was 0.0475 µM.
